Data reported in patent publication US20240115536A1, “DUAL-ACTING PHARMACEUTICAL COMPOSITIONS BASED ON SUPERSTRUCTURES OF ANGIOTENSIN RECEPTOR ANTAGONIST/BLOCKER (ARB) AND NEUTRAL ENDOPEPTIDASE (NEP) INHIBITOR” (Novartis AG, priority 2007, published 2024).
Read-outs that look alike come from different tables or passages of the source.

Tests used:
[1] = Measurement of pharmacokinetic parameters, ascending single dose 5, 20, 80 mg LCZ696 vs 40 mg Diovan
Procedure: The study employs a two-period, parallel group, ascending single dose (5, 20, 80 mg of LCZ696 and 40 mg Diovan® (marketed formulation of valsartan), placebo controlled design with dose selection based on FDA exploratory-IND guidance. The dosages of LCZ696 are obtained by using the 5 mg and 50 mg tablets as manufactured above and employing for the 20 mg and 80 mg dose multiple tablets of 5 mg and/or 50 mg strength.
To enable comparison of the exposure to valsartan between LCZ696 and Diovan® at different dose levels, valsartan's exposure (AUC) and Cmax values are normalized to the actual amount of anhydrous salt-free- valsartan administered (normalized by mg-equivalent). The AUC0-24 values are calculated as ng·h/ml/mg-equivalent of valsartan, and the geometric means are compared.

[2] = Dissolution testing, USP paddle method, pH 6.8 phosphate buffer, 50 rpm; type: physicochemical
Procedure: The term “dissolution” as used herein refers to a process by which a solid substance, here the active ingredients, is dispersed in molecular form in a medium. The dissolution rate of the active ingredients of the pharmaceutical oral fixed dose combination of the invention is defined by the amount of drug substance that goes in solution per unit time under standardized conditions of liquid/solid interface, temperature and solvent composition. The dissolution rate is measured by standard methods known to the person skilled in the art, see the harmonized procedure set forth in the pharmacopeias USP <711> and EP 2.9.3 and JP. For the purposes of this invention, the test is for measuring the dissolution of the individual active ingredients is performed following pharmacopeia USP <711> at pH 6.8 using a paddle stirring element at 50 rpm (rotations per minute) or alternatively at pH 4.5 using a paddle stirring element at 75 rpm as specified. The dissolution medium is preferably a buffer, typically a phosphate buffer, especially one as described in the example “Dissolution Test”.
The tablets of the Examples are tested for their dissolution in 900 ml of pH 6.8 phosphate buffer with paddles at 50 rpm.
The assembly consists of the following: a covered vessel made of glass or other inert, transparent material; a motor, and a paddle formed from a blade and shaft as the stirring element. The vessel is partially immersed in a suitable water bath of any convenient size or placed in a heating jacket. The water bath or heating jacket permits holding the temperature inside the vessels at 37±0.5° during the test and keeping the bath fluid in constant, smooth motion. No part of the assembly, including the environment in which the assembly is placed, contributes significant motion, agitation, or vibration beyond that due to the smoothly rotating stirring element. Apparatus that permits observation of the specimen and stirring element during the test is has the following dimensions and capacities: the height is 160 mm to 210 mm and its inside diameter is 98 mm to 106 mm. Its sides are flanged at the top. A fitted cover may be used to retard evaporation. The shaft is positioned so that its axis is not more than 2 mm at any point from the vertical axis of the vessel and rotates smoothly without significant wobble. The vertical center line of the blade passes through the axis of the shaft so that the bottom of the blade is flush with the bottom of the shaft. The design of the paddle is as shown in USP <711>, FIG. 2. The distance of 25±2 mm between the blade and the inside bottom of the vessel is maintained during the test. The metallic or suitably inert, rigid blade and shaft comprise a single entity. A suitable two-part detachable design may be used provided the assembly remains firmly engaged during the test. The paddle blade and shaft may be coated with a suitable inert coating. The dosage unit is allowed to sink to the bottom of the vessel before rotation of the blade is started. A small, loose piece of nonreactive material such as not more than a few turns of wire helix may be attached to dosage units that would otherwise float. Other validated sinker devices may be used.
1L of a buffered aqueous solution, adjusted to pH 6.8±0.05 (0.05 M Phosphate buffer solution obtained by dissolving 6.805 g of potassium dihydrogen phosphate and 0.896 g of sodium hydroxide in and diluting to 1000 ml with water, and adjusting the pH to 6.80±0.05 using 0.2 M sodium hydroxide or 1 M phosphoric acid; referred hereinafter as “Dissolution Medium”) is placed in the vessel of the apparatus, the apparatus is assembled, the Dissolution Medium is equilibrated to 37±0.5°, and the thermometer is removed. 1 dosage form (e.g. tablet or capsule) is placed on the apparatus, taking care to exclude air bubbles from the surface of the dosage-form unit, and immediately the apparatus is operated at a rate of 50+2 rpm. […]

[3] = for AUC0-24 for valsartan / Cmax for valsartan / t1/2 for valsartan / tmax for valsartan: healthy volunteers
[4] = Cohort A (5 mg LCZ696; 40 mg Diovan)
[5] = Cohort B (20 mg LCZ696; 40 mg Diovan)
[6] = Cohort C (80 mg LCZ696; 40 mg Diovan)
[7] = Combined Cohorts A-B-C (pooled data)
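Wherever AUC0-24 for valsartan is given: randomized double-blind placebo-controlled parallel-group study with ascending single doses and 14-day daily dosing cohorts, pharmacokinetics measured in healthy volunteers.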
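Wherever Cmax for valsartan is given: randomized double-blind placebo-controlled parallel-group study with ascending single doses and 14-day daily dosing cohorts, pharmacokinetics measured in healthy volunteers.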
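Wherever accumulation of all analytes is given: randomized double-blind placebo-controlled parallel-group study with ascending single doses and 14-day daily dosing cohorts, pharmacokinetics measured in healthy volunteers.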
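Wherever t1/2 for valsartan is given: randomized double-blind placebo-controlled parallel-group study with ascending single doses and 14-day daily dosing cohorts, pharmacokinetics measured in healthy volunteers.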

## CCCCC(=O)N(Cc1ccc(-c2ccccc2-c2nn[n-]n2)cc1)[C@H](C(=O)[O-])C(C)C.CCOC(=O)[C@H](C)C[C@@H](Cc1ccc(-c2ccccc2)cc1)NC(=O)CCC(=O)[O-].[Na+].[Na+].[Na+] [LCZ696, trisodium [3-((1S,3R)-1-biphenyl-4-ylmethyl-3-ethoxycarbonyl-1-butylcarbamoyl) propionate-(S)-3′-methyl-2′-(pentanoyl{2″-(tetrazol-5-ylate)biphenyl-4′-ylmethyl}amino)butyrate]hemipentahydrate]
[1]; 5, 20, 80 mg LCZ696 single dose
  dose linearity of valsartan exposures: dose linear
[1]; [4]
  AUC0-24, dose-normalized, geometric mean, valsartan: 364 ng * h/ml/mg-equivalent
  AUC0-24 ratio LCZ696/Diovan: 1.81
  AUC0-inf ratio LCZ696/Diovan: 1.81
  AUC0-inf, dose-normalized, geometric mean, valsartan: 372 ng * h/ml/mg-equivalent
  Cmax ratio LCZ696/Diovan: 2.09
  Cmax, dose-normalized, geometric mean, valsartan: 56 ng/ml/mg-equivalent
[1]; [5]
  AUC0-24, dose-normalized, geometric mean, valsartan: 280 ng * h/ml/mg-equivalent
  AUC0-24 ratio LCZ696/Diovan: 1.38
  AUC0-inf ratio LCZ696/Diovan: 1.38
  AUC0-inf, dose-normalized, geometric mean, valsartan: 284 ng * h/ml/mg-equivalent
  Cmax ratio LCZ696/Diovan: 1.69
  Cmax, dose-normalized, geometric mean, valsartan: 44 ng/ml/mg-equivalent
[1]; [6]
  AUC0-24, dose-normalized, geometric mean, valsartan: 244 ng * h/ml/mg-equivalent
  AUC0-24 ratio LCZ696/Diovan: 1.67
  AUC0-inf ratio LCZ696/Diovan: 1.64
  AUC0-inf, dose-normalized, geometric mean, valsartan: 245 ng * h/ml/mg-equivalent
  Cmax ratio LCZ696/Diovan: 2.1
  Cmax, dose-normalized, geometric mean, valsartan: 43 ng/ml/mg-equivalent
[1]; [7]
  AUC0-24, dose-normalized, geometric mean, valsartan: 292 ng * h/ml/mg-equivalent
  AUC0-24 ratio LCZ696/Diovan: 1.61
  AUC0-inf ratio LCZ696/Diovan: 1.6
  AUC0-inf, dose-normalized, geometric mean, valsartan: 296 ng * h/ml/mg-equivalent
  Cmax ratio LCZ696/Diovan: 1.95
  Cmax, dose-normalized, geometric mean, valsartan: 47 ng/ml/mg-equivalent
[1]; oral administration
  tmax of valsartan free acid: 1.8 ± 0.3 h
[1]; oral, analyte valsartan free acid, listed as therapeutic agent
  enhanced oral bioavailability of valsartan free acid versus Diovan formulation: 1.6 fold
[1]; single dose, range of cohort means
  tmax for valsartan (mean): 1.3 to 1.8 h
[1]; valsartan, dose-equivalent normalized, pooled cohorts
  ratio of geometric means for AUC, LCZ696/Diovan: 161%
[2]; about 100 mg per unit dosage form, after 10 min
  mean valsartan free acid released: about 50%
[2]; about 100 mg per unit dosage form, after 20 min
  mean valsartan free acid released: about 85%
[2]; about 100 mg per unit dosage form, after 30 min
  mean valsartan free acid released: about 95%
[2]; about 200 mg per unit dosage form, after 10 min
  mean valsartan free acid released: about 50%
[2]; about 200 mg per unit dosage form, after 20 min
  mean valsartan free acid released: about 85%
[2]; about 200 mg per unit dosage form, after 30 min
  mean valsartan free acid released: about 95%
[2]; about 400 mg per unit dosage form, after 10 min
  mean valsartan free acid released: about 40%
[2]; about 400 mg per unit dosage form, after 20 min
  mean valsartan free acid released: about 70%
[2]; about 400 mg per unit dosage form, after 30 min
  mean valsartan free acid released: about 90%
[3]; 50 mg daily for 14 days
  AUC0-24 for valsartan: 6935 ng·h/mL
  Cmax for valsartan: 1233 ng/mL
  t1/2 for valsartan: 15.2 h
  tmax for valsartan: 1.6 h
[3]; 200 mg daily for 14 days
  AUC0-24 for valsartan: 21079 ng·h/mL
  Cmax for valsartan: 3990 ng/mL
  t1/2 for valsartan: 22.1 h
  tmax for valsartan: 1.8 h
[3]; 600 mg daily for 14 days
  AUC0-24 for valsartan: 58876 ng·h/mL
  Cmax for valsartan: 8563 ng/mL
  t1/2 for valsartan: 22.6 h
  tmax for valsartan: 2.2 h
[3]; 900 mg daily for 14 days
  AUC0-24 for valsartan: 54920 ng·h/mL
  Cmax for valsartan: 8960 ng/mL
  t1/2 for valsartan: 15.0 h
  tmax for valsartan: 4.9 h
[3]; 50-900 mg LCZ696 once daily for 14 days
  accumulation of all analytes: Minimal accumulation
[3]; single dose 200 mg
  AUC0-24 for valsartan: 16970 ng·h/mL
  Cmax for valsartan: 3309 ng/mL
  t1/2 for valsartan: 11.7 h
  tmax for valsartan: 1.7 h
[3]; single dose 600 mg
  AUC0-24 for valsartan: 40645 ng·h/mL
  Cmax for valsartan: 7269 ng/mL
  t1/2 for valsartan: 16.6 h
  tmax for valsartan: 1.9 h
[3]; single dose 900 mg
  AUC0-24 for valsartan: 53568 ng·h/mL
  Cmax for valsartan: 8374 ng/mL
  t1/2 for valsartan: 14.9 h
  tmax for valsartan: 2.2 h
[3]; single dose 1200 mg
  AUC0-24 for valsartan: 60118 ng·h/mL
  Cmax for valsartan: 7448 ng/mL
  t1/2 for valsartan: 8.9 h
  tmax for valsartan: 2.2 h
